From patent US8747873B2, “Compositions of dibromomalonamide and their use as biocides” (Dow Global Technologies LLC, priority 2012, dated 2014)
Like-named read-outs stand apart in the source and are kept apart here.

How the values were obtained:
[1] = system: mixture of Pseudomonas aeruginosa ATCC 10145 and Staphylococcus aureus ATCC 6538; experiment: Kill assay (MBC, synergy index); type: cell-based; conditions: 37° C., 2 hours
Description: This assay is used as a preliminary evaluation of synergy between the actives. The procedure is as follows. A mineral salts solution (0.2203 g of CaCl2, 0.1847 g of MgSO4, and 0.2033 g of NaHCO3 in 1 L water, approximately pH 8) is inoculated with equal amounts (about 10^7 CFU/ml) of a mixture of Pseudomonas aeruginosa ATCC 10145 and Staphylococcus aureus ATCC 6538. Aliquots of the cell suspension are then treated with 2,2-dibromomalonamide (“DBMAL”), […], and their combinations at various concentration levels. […] The MBC values are then used to calculate a synergy index (SI) values.
Summaries of the kill assay results are presented in the individual Examples. In each table, MBC values for each biocide and the blends tested are presented Likewise, the Synergy Index (“SI”) values for the combinations are listed. SI is calculated with the following equation: Synergy Index=Ca/CA+Mb/CB […]

[2] = system: mixture of Pseudomonas aeruginosa, Klebsiella pneumoniae, Staphylococcus aureus, and Bacillus subtilis; experiment: Growth inhibition assay; type: cell-based; conditions: 24 h; for inhibition at 0.19 µg/mL / inhibition at 0.39 µg/mL / inhibition at 0.78 µg/mL / inhibition at 1.56 µg/mL / inhibition at 3.13 µg/mL / inhibition at 6.25 µg/mL / inhibition at 12.5 µg/mL / inhibition at 25 µg/mL: read-out: % Inhibition of growth by DBMAL
Description: The growth inhibition assay used in the Examples measures inhibition of growth (or lack thereof) of a microbial consortium. Inhibition of growth can be the result of killing of the cells (so no growth occurs), killing of a significant portion of the populations of cells so that regrowth requires a prolonged time, or inhibition of growth without killing (stasis). Regardless of the mechanism of action, the impact of a biocide (or combination of biocides) can be measured over time on the basis of an increase in the size of the community.
The assay measures the efficacy of one or more biocides at preventing growth of a consortium of bacteria in a dilute mineral salts medium. The medium contains (in mg/l) the following components: FeCl3.6H2O (1); CaCl2.2H2O (10); MgSO4.7H2O (22.5); (NH4)2SO4 (40); KH2PO4 (10); K2HPO4 (25.5); Yeast Extract (10); and glucose (100). After all components are added to deionized water, the pH of the medium is adjusted to 7.5. Following filter sterilization, aliquots are dispensed in 100 ul quantities to sterile microtiter plate wells. Dilutions of DBMAL and/or “Biocide B” are then added to the microtiter plate. After preparing the combinations of actives as illustrated below, each well is inoculated with 100 μl of a cell suspension containing ca. 1×10^6 cells per milliliter of a mixture of Pseudomonas aeruginosa, Klebsiella pneumoniae, Staphylococcus aureus, and Bacillus subtilis. The final total volume of medium in each well is 300 μl. […] The resulting matrix allows testing of eight concentrations of each active and 64 combinations of actives in the ratios (of actives).
Controls (not shown) contain the medium with no biocide added. After preparing the combinations of actives as illustrated above, each well is inoculated with 100 μl of a cell suspension containing ca. 1×10^6 cells per milliliter of a mixture of Pseudomonas aeruginosa, Klebsiella pneumoniae, Staphylococcus aureus, and Bacillus subtilis. The final total volume of medium in each well is 300 μl.
Immediately after the microtiter plates are prepared, the optical density (OD) readings for each well is measured at 580 nm and the plates are then incubated at 37° C. for 24 hr. After the incubation period, the plates are gently agitated before OD580 values are collected. The OD580 values at T0 are subtracted from T24 values to determine the total amount of growth (or lack thereof) that occurs. These values are used to calculate the percent inhibition of growth caused by the presence of each biocide and each of the 64 combinations. A 90% inhibition of growth is used as a threshold for calculating synergy index (SI) values with the following equation: Synergy Index=MDBMAL/CDBMAL+MB/CB
where • CDBMAL: Concentration of DBMAL required to inhibit ˜90% of bacterial growth when used alone • CB: Concentration of biocide (B) required to inhibit ˜90% of bacterial growth when used alone. • MDBMAL: Concentration of DBMAL required to inhibit ˜90% of bacterial growth when used in combination with biocide (B). • MB: Concentration of biocide (B) required to inhibit ˜90% of bacterial growth when used in combination with DBMAL The SI values are interpreted as follows: • SI<1: Synergistic combination • SI=1: Additive combination • SI>1: Antagonistic combination

NC(=O)C(Br)(Br)C(N)=O [DBMAL, 2,2-dibromomalonamide]
MBC (minimum biocide concentration needed to completely kill), biocide alone [1]: 66.7 mg/L | inhibition at 0.19 µg/mL ([2]; Table 3, DBMAL alone 0.19 mg/l): 0% | inhibition at 0.39 µg/mL ([2]; Table 3, DBMAL alone 0.39 mg/l): 0% | inhibition at 0.78 µg/mL ([2]; Table 3, DBMAL alone 0.78 mg/l): 34% | inhibition at 1.56 µg/mL ([2]; Table 3, DBMAL alone 1.56 mg/l): 11% | inhibition at 3.13 µg/mL ([2]; Table 3, DBMAL alone 3.13 mg/l): 38% | inhibition at 6.25 µg/mL ([2]; Table 3, DBMAL alone 6.25 mg/l): 50% | inhibition at 12.5 µg/mL ([2]; Table 3, DBMAL alone 12.5 mg/l): 107% | inhibition at 25 µg/mL ([2]; Table 3, DBMAL alone 25.0 mg/l): 105% | inhibition at 0.19 µg/mL ([2]; Table 6, DBMAL alone 0.19 mg/l): 0% | inhibition at 0.39 µg/mL ([2]; Table 6, DBMAL alone 0.39 mg/l): 0% | inhibition at 0.78 µg/mL ([2]; Table 6, DBMAL alone 0.78 mg/l): 18% | inhibition at 1.56 µg/mL ([2]; Table 6, DBMAL alone 1.56 mg/l): 34% | inhibition at 3.13 µg/mL ([2]; Table 6, DBMAL alone 3.13 mg/l): 50% | inhibition at 6.25 µg/mL ([2]; Table 6, DBMAL alone 6.25 mg/l): 44% | inhibition at 12.5 µg/mL ([2]; Table 6, DBMAL alone 12.5 mg/l): 97% | inhibition at 25 µg/mL ([2]; Table 6, DBMAL alone 25 mg/l): 100% | inhibition at 0.19 µg/mL ([2]; Table 8, DBMAL alone 0.19 mg/l): 0% | inhibition at 0.39 µg/mL ([2]; Table 8, DBMAL alone 0.39 mg/l): 2% | inhibition at 0.78 µg/mL ([2]; Table 8, DBMAL alone 0.78 mg/l): 0% | inhibition at 1.56 µg/mL ([2]; Table 8, DBMAL alone 1.56 mg/l): 0% | inhibition at 3.13 µg/mL ([2]; Table 8, DBMAL alone 3.13 mg/l): 0% | inhibition at 6.25 µg/mL ([2]; Table 8, DBMAL alone 6.25 mg/l): 0% | inhibition at 12.5 µg/mL ([2]; Table 8, DBMAL alone 12.5 mg/l): 100% | inhibition at 25 µg/mL ([2]; Table 8, DBMAL alone 25.0 mg/l): 100% | inhibition at 0.19 µg/mL ([2]; Table 10, DBMAL alone 0.19 mg/l): 7% | inhibition at 0.39 µg/mL ([2]; Table 10, DBMAL alone 0.39 mg/l): 0% | inhibition at 0.78 µg/mL ([2]; Table 10, DBMAL alone 0.78 mg/l): 0% | inhibition at 1.56 µg/mL ([2]; Table 10, DBMAL alone 1.56 mg/l): 0% | inhibition at 3.13 µg/mL ([2]; Table 10, DBMAL alone 3.13 mg/l): 0% | inhibition at 6.25 µg/mL ([2]; Table 10, DBMAL alone 6.25 mg/l): 52% | inhibition at 12.5 µg/mL ([2]; Table 10, DBMAL alone 12.5 mg/l): 99% | inhibition at 25 µg/mL ([2]; Table 10, DBMAL alone 25.0 mg/l): 100% | inhibition at 0.19 µg/mL ([2]; Table 12 (4,4-D), DBMAL alone 0.19 mg/l): 0% | inhibition at 0.39 µg/mL ([2]; Table 12 (4,4-D), DBMAL alone 0.39 mg/l): 6% | inhibition at 0.78 µg/mL ([2]; Table 12 (4,4-D), DBMAL alone 0.78 mg/l): 0% | inhibition at 1.56 µg/mL ([2]; Table 12 (4,4-D), DBMAL alone 1.56 mg/l): 2% | inhibition at 3.13 µg/mL ([2]; Table 12 (4,4-D), DBMAL alone 3.13 mg/l): 0% | inhibition at 6.25 µg/mL ([2]; Table 12 (4,4-D), DBMAL alone 6.25 mg/l): 0% | inhibition at 12.5 µg/mL ([2]; Table 12 (4,4-D), DBMAL alone 12.5 mg/l): 100% | inhibition at 25 µg/mL ([2]; Table 12 (4,4-D), DBMAL alone 25.0 mg/l): 100% | inhibition at 0.19 µg/mL ([2]; Table 12 (TEHT), DBMAL alone 0.19 mg/l): 13% | inhibition at 0.39 µg/mL ([2]; Table 12 (TEHT), DBMAL alone 0.39 mg/l): 8% | inhibition at 0.78 µg/mL ([2]; Table 12 (TEHT), DBMAL alone 0.78 mg/l): 30% | inhibition at 1.56 µg/mL ([2]; Table 12 (TEHT), DBMAL alone 1.56 mg/l): 32% | inhibition at 3.13 µg/mL ([2]; Table 12 (TEHT), DBMAL alone 3.13 mg/l): 45% | inhibition at 6.25 µg/mL ([2]; Table 12 (TEHT), DBMAL alone 6.25 mg/l): 32% | inhibition at 12.5 µg/mL ([2]; Table 12 (TEHT), DBMAL alone 12.5 mg/l): 97% | inhibition at 25 µg/mL ([2]; Table 12 (TEHT), DBMAL alone 25.0 mg/l): 96% | concentration needed to provide at least 90% inhibition of growth ([2]; biocide alone): 12.5 mg/L
